# According to US10676406B2, “Hopanoids producing bacteria and related biofertilizers, compositions, methods and systems” (CALIFORNIA INSTITUTE OF TECHNOLOGY, priority 2015, dated 2020):
# Legend:
# [1] = test system: B. diazoefficiens WT; assay: MIC of polymyxin B by E-test; assay type: cell-based, Bradyrhizobium diazoefficiens; conditions: E-test strips 0.064-1024 μg/mL, 30° C., 7 days
# Experimental: (§1) Disk diffusion assays were used to quantify growth under oxidative, acidic and detergent stresses. For this, 4 day-old cultures of B. diazoefficiens strains grown in yeast extract-mannitol (YM) medium were washed and adjusted to an OD600 of 1.2 ml bacterial suspensions were then mixed with 100 ml of 42° C. pre-warmed YM soft agar (0.8% agar) and 5 ml portions of this mixture were poured on solid YM. Filter disks were placed at the center of the plates, and 5 μl of 5.5 M H2O2, 2 M HCl or SDS (10% w/v), were deposited on the disks. The diameters of growth inhibition areas were measured after incubation at 30° C. for 5 days.
# (§2) The MIC of polymyxin B was determined by the E-test method using disk diffusion assay as described above. Strips containing a gradient of polymyxin B ranging from 0.064-1024 μg/mL (Biomérieux, Marcy-l'étoile, France) were placed in the center of plates, which were incubated at 30° C. for 7 days before recording the results. The experiment was done in triplicates.
# [2] = test system: B. diazoefficiens ΔhpnH; assay: MIC of polymyxin B by E-test; assay type: cell-based, Bradyrhizobium diazoefficiens
# Experimental: as §1, §2
substance,measurement,setting,value
polymyxin B,MIC for polymyxin B,[1],512 µg/mL
same,MIC for polymyxin B,"[2]; E-test strips 0.064-1024 μg/mL, 30° C., 7 days",48 µg/mL
same,fold lower MIC for polymyxin B in ΔhpnH than WT,[2]; ΔhpnH versus WT,10 fold
